Measurements: patent US9138512B2, “Implant with a surface layer having a topographic modification” (Biotronik AG, priority 2010, dated 2015)

Tests used:
[1] = system: Human umbilical vein endothelial cells (HUVEC); experiment: Time to onset of spreading of HUVEC on substrates (time-lapse microscopy); type: cell-based; conditions: HUVEC on gratings A-10, 50 μM blebbistatin, 10 μM Y27632 or 30 μM ML-7 added 30 minutes before
Method: To generate confluent monolayers cells were seeded on COC substrates at high density (60-70×10^4 cell/cm^2) as reported by Lampugnani et al. and cultured for three days. To measure the time to onset of spreading, cells were detached from a subconfluent cell culture and resuspended in pre-warmed medium without antibiotics. The cells were then counted, diluted to reach a concentration of 5×10^4 cells in 1 ml of medium and then seeded onto the substrates.
(§1) For contractility inhibition experiments during endothelial spreading, the cells were treated with DMSO (corresponding v/v), 30 μM ML-7, 10 μM Y27632 or 50 μM blebbistatin. The drugs were dissolved in DMSO (ML-7, blebbistatin) or in distilled water (Y27632) and added to the cells 30 minutes before starting the experiment.
Cell imaging was performed using an inverted Nikon-Ti wide-field microscope (Nikon, Jaw pan) equipped with an Orca R-2 CCD camera (Hamamatsu Photonics, Japan). After cell seeding, the topographic chip was placed under the microscope in an incubated chamber (Life Imaging Services, Switzerland), where temperature and CO2 concentration were maintained at 37° C. and 5%, respectively. Images were collected with a 20×, 0.45 NA long-distance objective (Plan Fluor, Nikon). Endothelial spreading on topographic substrates in topographic chips was recorded in parallel time-lapse movies for up to 6 different substrates (a flat control and five different gratings). Before starting the experiment, five non-overlapping positions were chosen within each substrate and stored in a position list. Immediately after cell seeding, the experiment was started to automatically acquire a differential interference contrast (DIC) image at each saved position with a time resolution of 1 minute for a total of one or two hours. Focal drift during the experiments was eliminated using the microscope's PFS autofocus system. At the end of the experiment, the resulting time-lapses were converted into a single 8 bit movie for each imaging field under analysis.
(§2) Collected movies were loaded into ImageJ (National Institutes of Health, USA) and analyzed as follows: In a first step, movies acquired on patterned substrates were filtered by Fast Fourier Transform (FFT). This procedure eliminates the scattering generated by the gratings. The time to onset of spreading on the respective substrates was then measured for each cell detected within all parallel time-lapses acquired. […] A mean time to onset of spreading was calculated for each substrate under analysis by averaging the values measured for all individual cells. HUVEC alignment to the gratings was measured for all cells detected in the last frame of each recorded movie. […]

[2] = system: Human umbilical vein endothelial cells (HUVEC); experiment: HUVEC alignment to the gratings (contact guidance); type: cell-based; conditions: HUVEC on gratings A-10; 50 μM blebbistatin or 10 μM Y27632
Method: as §1
Cell imaging was performed using an inverted Nikon-Ti wide-field microscope (Nikon, Jaw pan) equipped with an Orca R-2 CCD camera (Hamamatsu Photonics, Japan). […] Endothelial spreading on topographic substrates in topographic chips was recorded in parallel time-lapse movies for up to 6 different substrates (a flat control and five different gratings). […]
as §2, with “This procedure eliminates the scattering generated by the gratings.” left out

SMILES: O=S(=O)(c1cccc2c(I)cccc12)N1CCCNCC1 [ML-7]
- effect of inhibitor on time to onset of spreading / spreading [1]: No spreading could be measured
- effect of inhibitor on time to onset of spreading / spreading ([1]; listed as ML7): completely ablates HUVEC spreading

SMILES: Cc1ccc2c(c1)C(=O)C1(O)CCN(c3ccccc3)C1=N2 (stereo not drawn) [Blebbistatin]
- effect of inhibitor on time to onset of spreading / spreading [1]: no effect
- average alignment of inhibitor-treated cells to gratings [2]: 26.5±6.5 °

SMILES: C[C@@H](N)[C@H]1CC[C@H](C(=O)Nc2ccncc2)CC1 [Y27632]
- effect of inhibitor on time to onset of spreading / spreading [1]: no effect
- average alignment of inhibitor-treated cells to gratings [2]: 24.7±6.4 °
